Here are results for one compound from US20100099756A1, “USES OF INCENSOLE, INCENSOLE ACETATE AND DERIVATIVES THEREOF” (YISSUM RESEARCH DEVELOPMENT COMPANY OF THE HEBREW …, priority 2006, published 2010).

Molecules are shown by their SMILES.

In one assay the target is T1, mouse TRPV3-YFP (Mus musculus, UniProt Q8K424).
T1 construct: expressed in transfected cells
T1 sequence (Q8K424 1-791): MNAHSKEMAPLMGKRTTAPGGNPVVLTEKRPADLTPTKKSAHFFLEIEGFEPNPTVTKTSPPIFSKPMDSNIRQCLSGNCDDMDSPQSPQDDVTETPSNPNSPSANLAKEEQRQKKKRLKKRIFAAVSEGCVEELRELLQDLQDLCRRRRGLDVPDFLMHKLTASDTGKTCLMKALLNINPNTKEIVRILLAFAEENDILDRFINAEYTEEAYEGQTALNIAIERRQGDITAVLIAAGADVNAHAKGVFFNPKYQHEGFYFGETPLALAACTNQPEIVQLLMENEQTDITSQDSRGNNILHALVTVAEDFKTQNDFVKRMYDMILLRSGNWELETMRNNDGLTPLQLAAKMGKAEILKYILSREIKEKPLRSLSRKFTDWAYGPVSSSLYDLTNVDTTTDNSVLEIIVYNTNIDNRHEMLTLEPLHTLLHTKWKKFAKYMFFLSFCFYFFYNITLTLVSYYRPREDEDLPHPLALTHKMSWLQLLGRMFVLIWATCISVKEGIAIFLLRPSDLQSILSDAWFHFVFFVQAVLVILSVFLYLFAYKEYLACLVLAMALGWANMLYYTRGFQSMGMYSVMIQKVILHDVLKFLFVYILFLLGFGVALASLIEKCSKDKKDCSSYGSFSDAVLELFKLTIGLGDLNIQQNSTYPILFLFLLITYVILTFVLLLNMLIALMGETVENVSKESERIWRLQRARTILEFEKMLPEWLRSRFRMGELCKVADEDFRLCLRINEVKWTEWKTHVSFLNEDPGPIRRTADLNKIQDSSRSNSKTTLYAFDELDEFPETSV
Put plainly: Calcium imaging of HEK293 cells expressing mouse TRPV3-YFP. In kind it is cell-based. As to the method:
(§1) All error bars indicate SEM; p values in all subfigures but c represent analysis with one-way ANOVA Bonferroni's post hoc.
TRPV3-YFP [O'dell, D. K., Rimmerman, N., Pickens, S. R. & Walker J. M. Fatty acyl amides of endogenous tetrahydroisoquinolines are active at the recombinant human TRPV1 receptor. […] Med. Chem. 15, 6164-6169 (2007)], TRPV4 and mock-transfected cell lines were cultured in DMEM 1× with L-glutamine (Mediatech, Inc. Herndon, Va.), containing 1% penicillin-streptomycin (Invitrogen, Carlsbad, Calif.) and 10% foetal bovine serum.
Calcium imaging of HEK 293 cells. TRPV1, TRPV3, and TRPV4 expressing HEK293 cells were plated 24-48 h before imaging in 96 well plates, loaded with 3 μM Fura-2 AM and imaged as previously described [O'dell, D. K., Rimmerman, N., Pickens, S. R. & Walker J. M. Fatty acyl amides of endogenous tetrahydroisoquinolines are active at the recombinant human TRPV1 receptor. […] Med. Chem. 15, 6164-6169 (2007)].
(§2) For single cell calcium imaging, HEK293-rat TRPV2 and HEK293-mouse TRPV3-YFP expressing cells were plated on collagen-coated glass cover slips. Cells were loaded for 60 min with 3 μM Fura-2 AM.
Data analysis of calcium imaging data. Analysis of calcium imaging data was done using a non-linear regression curve fit (Graphpad 4 Prism, San Diego, Calif.). t tests and one way ANOVA were calculated using SPSS (Chicago, Ill.). In the keratinocyte experiments, drug-induced response for each cell was taken as the maximal post-drug measurements over time minus the average of the last 5 pre-drug measurements. Averaged drug responses over 30 randomly selected cells per coverslip were analyzed with two-tailed unpaired t tests.

A further assay deals with T2, rat-TRPV2 (Rattus norvegicus, UniProt Q9WUD2).
T2 construct: expressed in transfected cells; host or cells: HEK293 (transient, lipofectamine)
T2 sequence (Q9WUD2 whole entry): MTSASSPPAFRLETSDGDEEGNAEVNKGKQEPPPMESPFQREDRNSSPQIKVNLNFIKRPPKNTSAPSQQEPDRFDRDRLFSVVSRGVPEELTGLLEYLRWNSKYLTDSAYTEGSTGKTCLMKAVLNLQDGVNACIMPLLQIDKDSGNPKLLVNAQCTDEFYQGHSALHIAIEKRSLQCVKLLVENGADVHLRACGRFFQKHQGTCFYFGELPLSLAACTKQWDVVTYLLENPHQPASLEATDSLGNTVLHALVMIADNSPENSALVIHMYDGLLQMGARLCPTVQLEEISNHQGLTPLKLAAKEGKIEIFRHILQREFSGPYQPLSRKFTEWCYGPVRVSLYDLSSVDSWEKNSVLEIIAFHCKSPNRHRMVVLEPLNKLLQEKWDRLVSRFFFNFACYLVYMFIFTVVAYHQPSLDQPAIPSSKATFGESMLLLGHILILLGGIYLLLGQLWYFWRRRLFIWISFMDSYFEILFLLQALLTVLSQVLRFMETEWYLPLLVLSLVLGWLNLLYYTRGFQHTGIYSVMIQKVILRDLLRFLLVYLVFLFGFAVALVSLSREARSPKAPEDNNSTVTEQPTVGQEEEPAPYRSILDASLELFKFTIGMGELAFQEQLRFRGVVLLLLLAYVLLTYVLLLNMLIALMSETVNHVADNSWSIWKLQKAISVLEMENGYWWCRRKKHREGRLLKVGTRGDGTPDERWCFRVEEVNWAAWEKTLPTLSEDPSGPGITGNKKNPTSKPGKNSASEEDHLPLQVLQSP
Nature of the assay: Calcium imaging of HEK293 cells transiently transfected with rat-TRPV2. The format is cell-based. As to conditions: IA 100 μM.
Source text: as §1
(§3) HEK293 cells were transiently transfected with a rat TRPV2 plasmid using lipofectamine reagent (Invitrogen, Carlsbad, Calif.) according to manufacturer's protocol. They were then maintained in Dulbecco's modified Eagle Medium/10% fetal calf serum supplemented with Penicillin, Streptomycin, and L-glutamine. Primary keratinocytes from TRPV3-deficient and TRPV3+/+ mouse pups (day 1-4) were harvested and cultured as described previously [Chung, M. K., Lee, H., Mizuno, A., Suzuki, M. & Caterina, M. J. TRPV3 and TRPV4 mediate warmth-evoked currents in primary mouse keratinocytes. J. Biol. Chem. 279, 21569-21575 (2004)].
as §2

Assay [1] relates to receptors known to be involved in psychoactivity. Put plainly: Interaction with receptors involved in psychoactivity.
The target of the next assay is T3, TRPV3 (Mus musculus, UniProt Q8K424).
T3 sequence (Q8K424 1-791): T1 sequence (Q8K424 1-791)
Nature of the assay: Calcium imaging of TRPV3+/+ and TRPV3−/− primary keratinocytes. In kind it is cell-based. Details: endogenous in cells; host or cells: primary keratinocytes from TRPV3+/+ mouse pups (day 1-4); TRPV3-/- cells as control. As to conditions: IA 500 μM.
Source text: as §3
Calcium imaging of TRPV3^+/+ and TRPV3^−/− keratinocytes. Primary keratinocytes from TRPV3-deficient and WT mouse pups (day 1-4) were harvested and cultured as described [Chung, M. K., Lee, H., Mizuno, A., Suzuki, M. & Caterina, M. J. TRPV3 and TRPV4 mediate warmth-evoked currents in primary mouse keratinocytes. J. Biol. Chem. 279, 21569-21575 (2004)].
Cells were plated on glass coverslips (10^5/cm^2) and incubated for 48-60 h, then loaded with fura-2 AM (20 μM, 0.04% pleuronic acid, 32° C. for 1 h) in imaging buffer containing (in mM): 130 NaCl, 2.5 CaCl2, 0.6 MgCl2, 10 HEPES, 1.2 NaHCO3, 10 glucose, pH 7.45. Ratiometric Ca^2+ imaging was performed as previously described [O'dell, D. K., Rimmerman, N., Pickens, S. R. & Walker J. M. Fatty acyl amides of endogenous tetrahydroisoquinolines are active at the recombinant human TRPV1 receptor. Bioorg. Med. Chem. 15, 6164-6169 (2007)]. Drug was added to the bath following a period of baseline recording. Calcium measurements were made from 30 randomly selected cells per coverslip.
Data analysis of calcium imaging data. Analysis of calcium imaging data was done using a non-linear regression curve fit (Graphpad 4 Prism, San Diego, Calif.). t tests and one way ANOVA were calculated using SPSS (Chicago, Ill.). […] Averaged drug responses over 30 randomly selected cells per coverslip were analyzed with two-tailed unpaired t tests.

One may read the EC50 as the midpoint of the concentration-response curve. `CC(=O)OC1CC/C(C)=C/CC/C(C)=C/CC2(C(C)C)CCC1(C)O2` (centres unmarked) [IA, incensole acetate]: at mouse TRPV3-YFP (IA 100 μM, 2-APB positive control), the “calcium influx vs vehicle” value was “significantly increased calcium influx”. The “calcium influx Hill slope” value on mouse TRPV3-YFP (calcium in the extracellular media) was determined as 2.2. Besides, on mouse TRPV3-YFP (calcium in the extracellular media, read-out: calcium influx EC50), the concentration giving a half-maximal response (EC50) is 16 µM. The “calcium increase with calcium removed from the extracellular medium” value at mouse TRPV3-YFP (no extracellular calcium) is “significantly reduced”. Further, the “calcium influx in rat-TRPV2 transfected HEK293 cells” value at rat-TRPV2 was “did not induce calcium influx”. Further, in assay [1], the “interaction with receptors known to be involved in psychoactivity” value was “does not interact”. Moreover, the “calcium influx in primary keratinocytes from TRPV3−/− mice” value at TRPV3 was “not from TRPV3”. At TRPV3 (camphor 10 mM), the “calcium influx in primary keratinocytes from WT mice” value is “induced a calcium influx”.
